The molecules below were run on IL-lb-induced proteoglycan breakdown in bovine nasal cartilage (assay: in vitro cytokine-induced cartilage degradation assay (Bovine Nasal Septum Cartilage Degradation Assay)). Settings: Bos taurus; IL-lb (500 ng/ml), 40 hours, 37° C.
Type: cell-based
Protocol: The compounds are efficacious in an in vitro cytokine-induced cartilage degradationassay (Arner EC and Pratta MA 1989. Arthritis Rheum 32:288-297). The activity of these compounds in blocking IL-lb-induced proteoglycan breakdown in bovine nasal cartilage was assessed.
Bovine nasal cartilage was incubated in Dulbecco's 10 modified Eagle's Medium (DMEM) containing 5% FCS and antibiotics at 37° C. in an atmosphere of 95% air and 5% CO2 for 40 hours in the absence or presence of IL-lb (500 ng/ml), with or without compound. Compounds were dissolved in DMSO (10^-2M) and further diluted with 15 medial to the required concentration and were included throughout the culture period. At the end of incubation, media were removed and assayed proteoglycan breakdown products using the 1,9 dimethylmethylene blue assay for glycosaminoglycans. Compounds were evaluated for the ability to block the stimulated release of proteoglycan in response to IL-l.
Work on O=c1cc(-c2ccccc2)sn1-c1nc2ccccc2s1 [Example 8, N-(2-benzothiazolyl)-5-phenyl-4-isothiazolin-3-one] yielded an IC50 of 15 µM.
Work on COc1ccccc1-c1cc(=O)n(-c2ccccc2)s1 [Example 12] yielded an IC50 of 34.5 µM.
Molecule CCOC(=O)c1cccc(-n2sc(-c3ccccc3)cc2=O)c1 [Example 37] has an IC50 of 7.8 µM.
For COc1cccc(-n2sc(-c3ccccc3)cc2=O)c1 [Example 20], the IC50 was 19 µM.
N#Cc1ccc(-n2sc(-c3ccccc3)cc2=O)cc1 [Example 18] was tested, and the IC50 was 7.8 µM.
With CCOC(=O)c1ccccc1-n1sc(-c2ccccc2)cc1=O [Example 38] the IC50 was 12 µM.
O=c1cc(-c2ccccc2)sn1-c1ccc(Cl)cc1 [Example 13] was tested, and the IC50 was 14.8 µM.
O=c1cc(-c2ccccc2C(F)(F)F)sn1-c1ccccc1 [Example 34] gave an IC50 of 7.2 µM.
In the case of O=c1c(-c2ccccc2)c(-c2ccccc2)sn1-c1ccccc1 [Example 10, 4,5,N-triphenyl-4-isothiazolin-3-one], the IC50 is reported as 43.5 µM.
Work on O=c1cc(-c2ccccc2)sn1-c1ccc([N+](=O)[O-])cc1 [Example 16] yielded an IC50 of 31 µM.
For O=c1cc(-c2ccccc2)sn1-c1ccc(C(F)(F)F)cc1 [Example 15], the IC50 was 7.2 µM.
CCOC(=O)c1ccc(-n2sc(-c3ccccc3)cc2=O)cc1 [Example 4, N-(4-carbethoxyphenyl)-5-phenyl-4-isothiazolin-3-one] gave an IC50 of 8.3 µM.
In the case of O=c1cc(-c2ccccc2Cl)sn1-c1ccccc1 [Example 11], the IC50 is reported as 11.2 µM.
With O=c1cc(-c2cccc(Cl)c2)sn1-c1ccccc1 [Example 29] the IC50 was 18.5 µM.
Molecule O=c1cc(-c2ccccc2)sn1-c1cccc(C(F)(F)F)c1 [Example 21] has an IC50 of 7 µM.
With O=c1cc(-c2cccc(C(F)(F)F)c2)sn1-c1ccccc1 [Example 33] the IC50 was 14 µM.
Cc1ccc(-n2sc(-c3ccccc3)cc2=O)cc1 [Example 1, N-(4-methylphenyl)-5-phenyl-4-isothiazolin-3-one] was tested, and the IC50 was 13.2 µM.
Work on O=c1cc(-c2ccc(Cl)cc2)sn1-c1ccccc1 [Example 28] yielded an IC50 of 14.8 µM.
Work on O=c1cc(-c2ccccc2)sn1-c1cccc(Cl)c1 [Example 19] yielded an IC50 of 11.3 µM.
Cc1cc([N+](=O)[O-])ccc1-n1sc(-c2ccccc2)cc1=O [Example 17] showed an IC50 of 14 µM.

Same assay, conditions: Bos taurus; at 30 μM; IL-lb (500 ng/ml), 40 hours, 37° C.
O=c1cc(-c2ccccc2)sn1-c1ccc(N(S(=O)(=O)C(F)(F)F)S(=O)(=O)C(F)(F)F)cc1 [Example 7, N-(4-(bistrifluoromethane)sulfonamidophenyl)-5-phenyl-4-isothiazolin-3-one] gave an inhibition at 30 µM of 48%.
For Nc1ccc(-n2sc(-c3ccccc3)cc2=O)cc1 [Example 39, N-(4-aminophenyl)-5-phenyl-4-isothiazolin-3-one], the inhibition at 30 µM was 32%.
NC(=O)c1ccc(-n2sc(-c3ccccc3)cc2=O)cc1 [Example 5, N-(4-carboxamidophenyl)-5-phenyl-4-isothiazolin-3-one] gave an inhibition at 30 µM of 42%.
O=c1cc(-c2ccccc2)sn1-c1ccccc1[N+](=O)[O-] [Example 26, N-(2-nitrophenyl)-5-phenyl-4-isothiazolin-3-one] was tested, and the inhibition at 30 µM was 43%.
O=C(O)c1ccccc1-n1sc(-c2ccccc2)cc1=O [Example 36] gave an inhibition at 30 µM of 26%.
Work on O=C(O)c1ccc(-n2sc(-c3ccccc3)cc2=O)cc1 [Example 3, N-(4-carboxyphenyl)-5-phenyl-4-isothiazolin-3-one] yielded an inhibition at 30 µM of 19%.
With O=C(O)c1ccc(-c2cc(=O)n(-c3ccccc3)s2)cc1 [Example 9, 5-(4-carboxyphenyl)-N-phenyl-4-isothiazolin-3-one] the inhibition at 30 µM was 18%.
COc1ccc(-c2cc(=O)n(-c3ccccc3)s2)cc1 [Example 30] was tested, and the inhibition at 30 µM was 37%.
COc1ccccc1-n1sc(-c2ccccc2)cc1=O [Example 24] showed an inhibition at 30 µM of 61%.
Work on O=c1cc(-c2ccc(C(F)(F)F)cc2)sn1-c1ccccc1 [Example 32] yielded an inhibition at 30 µM of 25%.
Nc1ccccc1-n1sc(-c2ccccc2)cc1=O [Example 6, N-(2-aminophenyl) -5-phenyl-4-isothiazolin-3-one] was tested, and the inhibition at 30 µM was 19%.
Molecule O=c1c(Br)c(-c2ccccc2)sn1-c1ccccc1 [Example 2, 4-bromo-N,5-diphenyl-4-isothiazolin-3-one] has an inhibition at 30 µM of 38%.
O=c1cc(-c2ccccc2)sn1-c1ccccc1C(F)(F)F [Example 25] gave an inhibition at 30 µM of 25%.
Work on Cc1ccccc1-n1sc(-c2ccccc2)cc1=O [Example 22] yielded an inhibition at 30 µM of 52%.
O=c1cc(-c2ccccc2)sn1-c1ccccc1Cl [Example 23] gave an inhibition at 30 µM of 33%.
Molecule COc1ccc(-n2sc(-c3ccccc3)cc2=O)cc1 [Example 14] has an inhibition at 30 µM of 85%.
Cc1cc(N)ccc1-n1sc(-c2ccccc2)cc1=O [Example 40] showed an inhibition at 30 µM of 14%.
O=C(O)c1cccc(-n2sc(-c3ccccc3)cc2=O)c1 [Example 35] gave an inhibition at 30 µM of 13%.

— patent US5411977A, “Substituted 2,5-diaryl-4-isothiazolin-3-ones as antiinflammatory and antithrombotic agents” (The Dupont Merck Pharmaceutical Company, priority 1993, dated 1995)
